The target in assay [1] is T1, human Cot catalytic domain (30-397 amino acids) (Homo sapiens, UniProt P41279).
T1 construct: Purified recombinant human Cot catalytic domain (30-397 amino acids) was purchased from Cama Biosciences; purchased Cama Biosciences (so in the source)
Briefly: High Throughput Cot Biochemical Assay (KinEASE TR-FRET). Conditions: read-out: IC50 HTRF. The procedure, abridged:
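TR-FRET (KinEASE) read-out: Eu-labelled phospho-specific antibody binds XL665-tagged STK3 peptide (1 μM) phosphorylated by 5 nM human Cot kinase domain (residues 30-397). Reaction at 400 μM ATP, pH 7.0 MOPS buffer with 10 mM MgOAc, 1 mM DTT and 0.1% DMSO.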
(In general: TR-FRET usually uses a lanthanide donor and a delayed reading to cut background.)

In assay [2] the test system is TNFα production in LPS-stimulated human monocytes. Put plainly: Cot Monocyte TNFα Cell Based Assay. The conditions noted are these: Homo sapiens, Monocyte, read-out: EC50 TNF. The procedure, abridged: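 TNFα release quantified by two-antibody TR-FRET, normalised to unstimulated (0%) and LPS-stimulated (100%) wells. Cells got a 1 h compound exposure at 37° C in 0.5% DMSO before 4 h challenge with 50 pg/ml LPS, at 5,000 cells/well.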

Where [3] appears, read: Cot biochemical HTRF (KinEASE TR-FRET) assay.
Where [4] appears, read: TNFα in LPS-stimulated human monocytes.
Where [5] appears, read: Cot KinEASE TR-FRET, 400 μM ATP.
The mark [6] stands for this setting: LPS-stimulated human monocytes, TNFα TR-FRET.
[7] abbreviates: Cot KinEASE TR-FRET (HTRF) biochemical assay, 400 μM ATP.

Each structure is given as a SMILES string. Where two headings read alike, the source gives them in different places.

T1 sequence (P41279 30-397): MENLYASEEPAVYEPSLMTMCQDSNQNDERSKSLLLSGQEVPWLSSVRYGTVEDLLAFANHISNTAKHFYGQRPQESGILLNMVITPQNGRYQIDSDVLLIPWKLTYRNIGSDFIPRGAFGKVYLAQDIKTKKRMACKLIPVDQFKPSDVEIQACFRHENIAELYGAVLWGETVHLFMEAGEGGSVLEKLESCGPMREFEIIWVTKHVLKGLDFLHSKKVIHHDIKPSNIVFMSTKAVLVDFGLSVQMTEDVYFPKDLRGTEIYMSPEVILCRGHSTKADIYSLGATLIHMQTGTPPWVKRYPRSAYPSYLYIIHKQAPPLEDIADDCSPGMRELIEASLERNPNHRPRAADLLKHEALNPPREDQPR

On to `Cn1cnc(C(Nc2cc(Cl)c3ncc(C#N)c(Nc4ccc(F)c(Cl)c4)c3c2)c2ccc(F)c(F)c2)c1` (centres unmarked) [Example 869, 8-chloro-4-((3-chloro-4-fluorophenyl)amino)-6-(((3,4-difluorophenyl)(1-methyl-1H-imidazol-4-yl)methyl)amino)quinoline-3-carbonitrile], for which the IC50 (as a rule, the concentration that inhibits the measured activity by half) in assay [1] (setting [3]) amounted to 125 nM. Moreover, the EC50 (usually the midpoint of the concentration-response curve) in assay [2] (setting [4]) is 2760 nM.

On to `Cn1cc([C@H](Nc2cc(Cl)c3ncc(C#N)c(Nc4ccc(F)c(Cl)c4)c3c2)c2cccc(CN3CCCC3)c2)nn1` [Example 842, (R)-8-chloro-4-((3-chloro-4-fluorophenyl)amino)-6-(((1-methyl-1H-1,2,3-triazol-4-yl)(3-(pyrrolidin-1-ylmethyl)phenyl)methyl)amino) quinoline-3-carbonitrile], for which, in assay [1] (setting [3]), the IC50 was found to be 998 nM. Further, the EC50 in assay [2] (setting [4]) came to 22100 nM.

As for `CC(C)n1cc([C@@H](Nc2cc(Cl)c3ncc(C#N)c(Nc4ccc(F)c(Cl)c4)c3c2)c2cccc(N3CCCCC3=O)c2)nn1` [Example 547, (S)-8-chloro-4-((3-chloro-4-fluorophenyl)amino)-6-(((1-isopropyl-1H-1,2,3-triazol-4-yl) (3-(2-oxopiperidin-1-yl)phenyl)methyl)amino) quinoline-3-carbonitrile], the IC50 in assay [1] (setting [3]) worked out at 2 nM. Also, the EC50 in assay [2] (setting [4]) is 508 nM.

Turning to `Cc1c(-c2cnco2)cccc1[C@H](Nc1cc(Cl)c2ncc(C#N)c(NCC(C)(C)C)c2c1)c1cn(C2(C(F)(F)F)CC2)nn1` [Example 1165, (S)-8-chloro-6-(((2-methyl-3 (oxazol-5-yl)phenyl)(1-(1-(trifluoromethyl)cyclopropyl)-1H-1,2,3-triazol-4-yl)methyl)amino)-4-(neopentylamino)quinoline-3-carbonitrile], in assay [1] (setting [5]), the IC50 came out at 9 nM. For the same compound, in assay [2] (setting [6]), the EC50 worked out at 102 nM.

Turning to `CC(C)(C)CNc1c(C#N)cnc2c(C#N)cc(N[C@@H](c3ccc(F)cc3)c3cn(C4(c5ccccn5)CC4)nn3)cc12` [Example 968, (S)-6-(((4-fluorophenyl)(1-(1-(pyridin-2-yl)cyclopropyl)-1H-1,2,3-triazo1-4-yl)methyl)amino)-4-(neopentylamino) quinoline-3,8-dicarbonitrile], in assay [1] (setting [5]), the IC50 turned out to be 17 nM. Besides, the 50% effective concentration (EC50) in assay [2] (setting [6]) worked out at 110 nM.

Take `CC(C)(C)Cn1cc([C@@H](Nc2cc(Cl)c3ncc(C#N)c(Nc4cnc(F)c(F)c4)c3c2)c2ccc(F)cc2)nn1` [Example 411, (S)-8-chloro-4-((5,6-difluoropyridin-3-yl)amino)-6-(((4-fluorophenyl)(1-neopentyl-1H-1,2,3-triazol-4-yl)methyl)amino)quinoline-3-carbonitrile]: the IC50 in assay [1] (setting [3]) stood at 111 nM. For the same compound, the EC50 in assay [2] (setting [4]) worked out at 3410 nM.

Consider `N#Cc1cnc2c(Cl)cc(N[C@@H](c3ccc(F)cc3)c3c[nH]nn3)cc2c1NCc1cccs1` [Example 418, (S)-8-chloro-6-(((4-fluorophenyl)(1H-1,2,3-triazol-4-yl)methyl)amino)-4-((thiophen-2-ylmethyl)amino)quinoline-3-carbonitrile], for which the IC50 in assay [1] (setting [3]) came to 361 nM. The 50% effective concentration (EC50) in assay [2] (setting [4]) was found to be 4170 nM.

As to `[2H][C@](Nc1cc(Cl)c2ncc(C#N)c(NN3CCCC3)c2c1)(c1ccc(F)cc1)c1cn(C2CC2)nn1` [Example 179, (S)-8-chloro-6-(((1-cyclopropyl-1H-1,2,3-triazol-4-yl)(4-fluorophenyl)methyl-d)amino)-4-(pyrrolidin-1-ylamino)quinoline-3-carbonitrile], the IC50 in assay [1] (setting [7]) is 193 nM. Moreover, the EC50 in assay [2] (setting [4]) turned out to be 2310 nM.

For the compound `COCCOCCn1cc([C@@H](Nc2cc(Cl)c3ncc(C#N)c(Nc4ccc(F)c(F)c4)c3c2)c2ccc(Cl)cc2)nn1` [Example 724, (S)-8-chloro-6-(((4-chlorophenyl)(1-(2-(2-methoxyethoxy)ethyl)-1H-1,2,3-triazol-4-yl)methyl)amino)-4-((3,4-difluorophenyl)amino) quinoline-3-carbonitrile], the IC50 in assay [1] (setting [3]) stood at 87 nM. Besides, in assay [2] (setting [4]), the EC50 is 1400 nM.

For the compound `CN(C)C(=O)c1cccc([C@H](Nc2cc(Cl)c3ncc(C#N)c(Nc4ccc(Cl)c(Cl)c4F)c3c2)c2cn(C3CCN(C(C)(C)C)CC3)nn2)c1` [Example 572, (S)-3-((1-(1-(tert-butyl)piperidin-4-yl)-1H-1,2,3-triazol-4-yl)((8-chloro-3-cyano-4-((3,4-dichloro-2-fluorophenyl)amino)quinolin-6-yl)amino)methyl)-N,N-dimethylbenzamide], the IC50 in assay [1] (setting [3]) is 2 nM. Also, in assay [2] (setting [4]), the EC50 was determined as 111 nM.

Take `CC(C)n1cc([C@@H](Nc2cc(Cl)c3ncc(C#N)c(NC(CC#N)c4ccccc4)c3c2)c2ccc(F)cc2)nn1` (stereo partly drawn) [Example 362, 8-chloro-4-((2-cyano-1-phenylethyl)amino)-6-(((S)-(4-fluorophenyl)(1-isopropyl-1H-1,2,3-triazol-4-yl)methyl)amino)quinoline-3-carbonitrile]: in assay [1] (setting [7]), the IC50 was found to be 5 nM. Moreover, in assay [2] (setting [4]), the EC50 stood at 83 nM.

Consider `N#Cc1cnc2c(Cl)cc(N[C@@H](c3ccc(F)cc3)c3cn(C4CC4)nn3)cc2c1NC(CN1CCOCC1)c1ccccc1` (stereo partly drawn) [Example 322, 8-chloro-6-(((S)-(1-cyclopropyl-1H-1,2,3-triazol-4-yl)(4-fluorophenyl)methyl)amino)-4-((2-morpholino-1-phenylethyl)amino)quinoline-3-carbonitrile], for which the IC50 in assay [1] (setting [7]) was determined as 140 nM. For the same compound, in assay [2] (setting [4]), the EC50 was determined as 959 nM.

On to `N#Cc1cnc2c(Cl)cc(N[C@@H](c3ccc(F)cc3)c3c[nH]nn3)cc2c1NCc1ccsc1` [Example 419, (S)-8-chloro-6-(((4-fluorophenyl)(1H-1,2,3-triazol-4-yl)methyl)amino)-4-((thiophen-3-ylmethyl)amino)quinoline-3-carbonitrile], for which, in assay [1] (setting [3]), the IC50 was found to be 392 nM. The EC50 in assay [2] (setting [4]) was determined as 4300 nM.

For `CC(C)n1cc([C@@H](Nc2cc(Cl)c3ncc(C#N)c(NCCCN(C)C)c3c2)c2ccccc2)nn1` [Example 542, (S)-8-chloro-4-((3-(dimethylamino)propyl)amino)-6-(((1-isopropyl-1H-1,2,3-triazol-4-yl)(phenyl)methyl)amino) quinoline-3-carbonitrile], the IC50 in assay [1] (setting [3]) was > 10000 nM. The EC50 in assay [2] (setting [4]) is > 10000 nM.

Regarding `[2H][C@](Nc1cc(C(C)O)c2ncc(C#N)c(NCC(C)(C)C)c2c1)(c1ccc(F)cc1)c1cn(C2CC2)nn1` (some centres unmarked) [Compound 29], in assay [1] (setting [7]), the IC50 came out at 217 nM. Further, the EC50 in assay [2] (setting [4]) was > 1000 nM.

Regarding `CC(C)(C)N1CCC(n2cc([C@@H](Nc3cc(Cl)c4ncc(C#N)c(NC56CCC7CC(CC(C7)C5)C6)c4c3)c3ccccc3)nn2)CC1` [Example 636, 6-(((S)-(1-(1-(tert-butyl)piperidin-4-yl)-1H-1,2,3-triazol-4-yl)(phenyl)methyl)amino)-8-chloro-4-(((1R,3r,6S,8S)-tricyclo[4.3.1.13,8]undecan-3-yl)amino)quinoline-3-carbonitrile], the IC50 in assay [1] (setting [3]) amounted to 143 nM. The half-maximal effective concentration (EC50) in assay [2] (setting [4]) came to 2390 nM.

Consider `[2H][C@](Nc1cc(Cl)c2ncc(C#N)c(NCC(C)(C)C)c2c1)(c1cccc(C#N)c1)c1c[nH]nn1` [Example 324, (S)-8-chloro-6-(((3-cyanophenyl)(1H-1,2,3-triazol-4-yl)methyl-d)amino)-4-(neopentylamino) quinoline-3-carbonitrile], for which, in assay [1] (setting [7]), the IC50 was 4 nM. Moreover, in assay [2] (setting [4]), the EC50 was 450 nM.

`C[C@@H](Nc1c(C#N)cnc2c(Cl)cc(N[C@@H](c3cccc(C(=O)N(C)C)c3)c3c[nH]nn3)cc12)c1ccccc1` [Example 578, 3-((S)-((8-chloro-3-cyano-4-(((R)-1-phenylethyl)amino)quinolin-6-yl)amino)(1H-1,2,3-triazol-4-yl)methyl)-N,N-dimethylbenzamide]: in assay [1] (setting [3]), the IC50 worked out at 13 nM. The concentration for a half-maximal effect (EC50) in assay [2] (setting [4]) worked out at 2150 nM.

Turning to `CC(C)(C)C(=O)c1cccc([C@H](Nc2cc(Cl)c3ncc(C#N)c(Nc4ccc(F)c(Cl)c4)c3c2)c2cn(C3CCN(C(C)(C)C)CC3)nn2)c1` [Example 671, (S)-6-(((1-(1-(tert-butyl)piperidin-4-yl)-1H-1,2,3-triazol-4-yl)(3-pivaloylphenyl)methyl)amino)-8-chloro-4-((3-chloro-4-fluorophenyl)amino)quinoline-3-carbonitrile], in assay [1] (setting [3]), the IC50 worked out at 10 nM. Further, in assay [2] (setting [4]), the EC50 is 682 nM.

As for `CC(=O)N(C)c1cccc([C@H](Nc2cc(Cl)c3ncc(C#N)c(Nc4cnc(F)c(F)c4)c3c2)c2cn(CC(F)(F)F)nn2)c1` [Example 510, (S)-N-(3-(((8-chloro-3-cyano-4-((5,6-difluoropyridin-3-yl)amino)quinolin-6-yl)amino)(1-(2,2,2-trifluoroethyl)-1H-1,2,3-triazol-4-yl)methyl)phenyl)-N-methylacetamide], the IC50 in assay [1] (setting [3]) is 5 nM. In assay [2] (setting [4]), the EC50 was determined as 321 nM.

`COc1ccc(Nc2c(C#N)cnc3c(Cl)cc(N[C@@H](c4ccccc4)c4c[nH]nn4)cc23)cn1` [Example 490, (S)-8-chloro-4-((6-methoxypyridin-3-yl)amino)-6-((phenyl (1H-1,2,3-triazol-4-yl)methyl)amino) quinoline-3-carbonitrile]: the IC50 in assay [1] (setting [3]) was 172 nM. The EC50 in assay [2] (setting [4]) amounted to 3190 nM.

As to `[2H][C@@](Nc1cc(Cl)c2ncc(C#N)c(NCC(C)(C)C)c2c1)(c1cn(C2CC2)nn1)c1c(F)cccc1Cl` [Example 101, (S)-8-chloro-6-(((2-chloro-6-fluorophenyl) (1-cyclopropyl-1H-1,2,3-triazol-4-yl)methyl-d)amino)-4-(neopentylamino) quinoline-3-carbonitrile], the IC50 in assay [1] (setting [7]) came to 83 nM. Further, the EC50 in assay [2] (setting [4]) was > 1000 nM.

The values are drawn from patent publication US10316017B2, “COT modulators and methods of use thereof” (Gilead Sciences, Inc., priority 2015, dated 2019).
